US20180326022A1, “COMPOSITIONS AND METHODS FOR IMPROVING HEART FUNCTION AND TREATING HEART FAILURE” (The Trustees of the University of Pennsylvania, priority 2017, published 2018)

How the values were obtained:
detyrosinated tubulin = assay: Western blotting of cardiomyocyte lysates (TTL, α-, detyr-, tyr-tubulin); type: cell-based; details: rat cardiomyocytes; PTL treatment; shTTL; short term EpoY
Experimental: (§1) Viral constructs were permitted to express for 24-72 hours with Moi=100-200. Parthenolide (Fisher Scientific NC9013142) treatment was carried out at room temperature for 2 hours at 10 μM. All experiments were performed within 48 hours of isolation, except those involving shTTL, which were allowed 72 hours to improve knockdown efficiency.
For analysis of proteins expression levels quantitative Western blots were performed using infrared fluorescence imaging on an Odyssey Imager (LI-COR). Cell homogenates were prepared in ice-cold IGEPAL lysis buffer. After 1 freezing cycle lysates were spun at 18,000×g for 5 min. Aliquots of supernatants were mixed with 4× sample buffer (LI-COR, 928-40004) containing 10% BME, boiled for 6 min., and resolved on sodium dodecyl sulfate (SDS)-polyacrylamide gel electrophoresis Tris-glycine gels (Bio-Rad). Proteins were transferred to a membrane on Mini Trans-Blot Cell (Bio-Rad), blocked 1 h in Odyssey Blocking Buffer (TBS) (LI-COR, 927-50000), and probed with the corresponding primary antibody (see list below) for 2 h at room temperature. Membranes were then rinsed with TBST 4 times for 5 min, and incubated with secondary antibodies (below) for 1.5 h at room temperature. Membranes were rinsed again with TBST and then imaged on Odyssey Imager. Image analysis was performed using Image Studio Lite software (LI-COR). Fluorescent band intensity was always normalized to GAPDH loading control. Analysis of human tissue samples for levels of detyrosinated tubulin was performed blinded to the experimental groups.

[1] = tested on: primary adult rat cardiomyocytes; assay: Cell contractility (sarcomere shortening, 1 Hz pacing); type: cell-based; details: for contraction amplitudes and velocities: primary adult rat cardiomyocytes, vinblastine 20 μM 2 hr, nocodazole 1 μM 30 min, costunolide 10 μM 2 hr
Experimental: as §1
Experiments were performed in custom-fabricated cell chambers (Ionoptix) mounted on an LSM Zeiss 780 inverted confocal microscope using a 40× oil 1.4 NA objective and transmitted light camera (IonOptix MyoCam-S). For contractility assays, cells were maintained in NT solution and electrical field stimulation was provided at 1 Hz with a myopacer (IonOptix MYP100) through platinum electrodes lowered into the bath. Sarcomere length was measured optically by Fourier transform analysis (IonWizard, IonOptix). After 15 s of 1 Hz pacing to achieve steady state, five traces were recorded and analyzed.

rat cardiomyocytes = assay: Calcium measurements (Fluo-3 transients); type: cell-based; details: rat ventricular myocytes; 2 hrs of 10 μM EpoY
Experimental: Myocytes were loaded with Fluo-3 by 20 min incubation with 1 μM Fluo-3-acetoxymethyl ester (Invitrogen) and 0.01% Pluronic F127 (a poloxamer made by BASF, Florham Park N.J., USA), and allowed an additional 10 min for de-esterification. Cells were scanned using a 488 nm argon ion laser in confocal line-scan mode at 1.92 ms/line. Cells were electrically paced at 1 Hz for 20 s to achieve steady state; the final 5 traces of the pacing protocol were pooled and analyzed for calcium transient properties. The measured fluorescence (F) throughout the transient was normalized to the resting fluorescence prior to stimulation (F0) to normalize for heterogeneity in dye loading.

human myocytes [2] = assay: Nanoindentation stiffness measurements; type: cell-based; details: failing human myocytes; 10 μM, 2 hours
Experimental: (§2) Viable myocytes were concentrated by gravity (5-7 min) and supernatant was aspirated to remove dead cells. Myocytes were resuspended in NT solution containing 1 mM Ca^2+ and concentrated by gravity (5-7 min) again. Cardiomyocytes used acutely were maintained in NT solution for up to 6 hours. Myocytes were treated with 10 μM parthenolide (Fisher Scientific NC9013142 or Sigma P0667) or 10 μM colchicine (Sigma) at room temperature in NT solution for 2 hours. Experiments were performed within 6 hours of isolation, except for those involving viral transduction in cultured cells.
MatTek glass bottom dish was coated 5 μl of 0.5 mg/ml laminin and air dried for 10 min. Culture medium was F-10 (1×) Nutrient Mixture (Ham) [+] L-Glutamine (Life Technologies, 11550-043) supplemented with insulin-transferrin selenium-X (Gibco, 51500-056), 20 mM HEPES, 1 μg/μl primocin (Invivogen, ant-pm-1), 0.4 mM extra CaCl2, 5% FBS, 25 μM cytochalasin D (Cayman, 11330). Viable myocytes were concentrated and a proper amount of medium was added in culture so that neighboring cells were not in direct contact. […]
Mechanical properties at the microscopic scale were measured using nanoindentation (Piuma, Optics11, The Netherlands). […] The Young's moduli were calculated automatically by the software, by fitting the force vs. indentation curve to the Hertz equation. […]

human myocytes [3] = assay: Cell contractility of human myocytes (0.5 Hz); type: cell-based
Experimental: as §2
MatTek glass bottom dish was coated 5 μl of 0.5 mg/ml laminin and air dried for 10 min. Culture medium was F-10 (1×) Nutrient Mixture (Ham) [+] L-Glutamine (Life Technologies, 11550-043) supplemented with insulin-transferrin selenium-X (Gibco, 51500-056), 20 mM HEPES, 1 μg/μl primocin (Invivogen, ant-pm-1), 0.4 mM extra CaCl2, 5% FBS, 25 μM cytochalasin D (Cayman, 11330). Viable myocytes were concentrated and a proper amount of medium was added in culture so that neighboring cells were not in direct contact. Viral constructs were permitted to express for 48 hours with Moi=100-200. Adenoviral TTL-IRES-dsRed and EMTB-3x GFP were transduced in human myocytes as previously performed in rat myocytes. Myocytes were replenished with fresh warm medium without cytochalasin D before calcium and contractility measurements.
Experiments were performed as described in Example 1 with some modification. Contractility is measured in custom-fabricated cell chambers (Ionoptix) mounted on an LSM Zeiss 880 inverted confocal microscope using a 40× oil 1.4 NA objective and transmitted light camera (IonOptix MyoCam-S). Myoyctes were maintained in NT solution (for freshly isolated myocytes) or culture medium (without cytochalasin D, for cultured myocytes) at room temperature and electrical field stimulation was provided at 0.5 Hz with a myopacer (IonOptix MYP100) through platinum electrodes lowered into the bath. Sarcomere length was measured optically by Fourier transform analysis (IonWizard, IonOptix). After 10-30 s of 0.5 Hz pacing to achieve steady state, five traces were recorded and analyzed. If not specified, contractility data was obtained at room temperature.
To test whether the contractile improvement over MT destabilization remains under more physiological conditions, both 0.5 Hz and 1 Hz contractions at 37 C were recorded and analyzed in a small subset of isolated human myocytes (1 NF and 1 failing heart, FIG. 29C).

human myocytes [4] = assay: Calcium measurements in human myocytes; type: cell-based
Experimental: as §2
Calcium measurements were carried out as described in Example 1 with the following modifications. Myocytes were loaded with 1 μM Fluo-3-acetoxymethyl ester (Invitrogen) and 15% Pluronic F127 (a poloxamer made by BASF, Florham Park, N.J., USA) for 15 minutes. Cells were scanned using a 488-nm argon ion laser in confocal line-scan mode at 0.909 ms/line. Cells were electrically paced at 0.5 Hz at room temperature for 30 s to achieve steady state; five steady-state transients of each myocyte were averaged, pooled in groups and analyzed for calcium transient properties. The measured fluorescence (F) throughout the transient was normalized to the resting fluorescence prior to stimulation (F0) to normalize for heterogeneity in dye loading.

[5] = tested on: cardiac and skeletal muscle; details: 10 μM; refs (13), (8); cited from earlier work

## CCOC(=O)C1O[C@@H]1C(=O)N[C@@H](Cc1ccc(O)cc1)C(=O)O (some centres unmarked) [EpoY]
Detyrosinated tubulin
  alpha / total tubulin levels (western blot): without changing
  detyrosinated tubulin (western blot): specifically reduces detyrosination
[1]; rat ventricular myocytes, 2 hrs of 10 μM EpoY
  contractility (amplitude of contraction, velocity of contraction and relaxation): enhanced
Rat cardiomyocytes
  electrically evoked [Ca2+]i transients: not changed

## COc1cc2c(c(OC)c1OC)-c1ccc(OC)c(=O)cc1[C@@H](NC(C)=O)CC2 [colchicine, (S)—N-(5,6,7,9-tetrahydro-1,2,3,10-tetramethoxy-9 oxobenzol[a]heptalen-7-yl) acetamide]
Human myocytes [2]
  viscoelasticity (Emax and EΔ): robustly reduced viscoelasticity
Human myocytes [3]; NF human myocytes, 10 μM, 2 hours
  shortening amplitude and contractile velocities: modest (yet significant) increases
Human myocytes [3]; failing human myocytes
  restoration of lost function (contractile velocities vs NF benchmark): ~50%
Human myocytes [3]; failing human myocytes, 10 μM, 2 hours
  shortening amplitude and velocity, speed of relaxation: robustly improved
Human myocytes [4]; any group (NF and failing human myocytes)
  Ca2+ cycling: no significant effect
Human myocytes [4]; failing human myocytes
  impaired [Ca2+]i cycling: neither colch nor PTL treatment improved
[5]
  effect on microtubules: broadly depolymerizes MTs

## C=C1C(=O)O[C@@H]2/C=C(\C)CC/C=C(\C)CC[C@@H]12 [costunolide, (3aS,6E,10E,11aR)-6,10-dimethyl-3-methylidene-3a,4,5,8,9,11a-hexahydrocyclodeca[b]furan-2-one]
[1]
  contraction amplitudes and velocities: effective to increase

## COC(=O)Nc1nc2ccc(C(=O)c3cccs3)cc2[nH]1 [nocodazole]
[1]
  contraction amplitudes and velocities: effective to increase

## CC[C@]1(O)C[C@@H]2CN(CCc3c([nH]c4ccccc34)[C@@](C(=O)OC)(c3cc4c(cc3OC)N(C)[C@H]3[C@@](O)(C(=O)OC)[C@H](OC(C)=O)[C@]5(CC)C=CCN6CC[C@]43[C@@H]65)C2)C1 [vinblastine]
[1]
  contraction amplitudes and velocities: effective to increase
